According to patent US20040024024A1, “Aromatic sulfone hydroxamates and their use as protease inhibitors” (priority 2001, published 2004):
Values joined by “and” are separate entries in the source; they are usually repeats but may differ in a detail not shown here. Equal values may be shown once. Where a name gives a salt, the structure may show the parent alone.

Columns and labels:
Type in all cases: biochemical
Human recombinant MMP-13 = biological target: T1, Human recombinant MMP-13 (Homo sapiens, UniProt P45452); test: In vitro MMP inhibition, IC50 determination (fluorogenic substrate I)
T1 construct: made in house; host or cells: baculovirus / insect cells
Method in brief: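 Fluorescence at 415 nm (excitation 328 nm) reports Gly-Leu cleavage of 4 μM quenched methoxycoumarin peptide substrate I. Human recombinant MMP-13, activated by trypsin or APMA, was incubated at room temperature with varied inhibitor concentrations in pH 7.5 Tris/NaCl/CaCl2 buffer; IC50 derived from reduced fluorescence.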

Human recombinant MMP-14 [1] = biological target: T2, Human recombinant MMP-14 (Homo sapiens, UniProt P50281); test: In vitro MMP inhibition, Ki determination (fluorogenic substrate II)
T2 construct: The catalytic domain enzyme was expressed in E. coli inclusion bodies, solubilized in urea; made in house
Procedure: Several hydroxamates and salts thereof were analyzed in in vitro assays to determine their ability to inhibit the MMP cleavage of peptide substrates. Inhibition (Ki) and IC50 constants were calculated from the assayed hydroxamate-MMP interactions.
Human recombinant MMP-1, MMP-2, MMP-9, MMP-13, and MMP-14 were used in this assay. All enzymes were prepared in Assignee's laboratories following usual laboratory procedures. Protocols for the preparation and use of these enzymes are available in the scientific literature. See, e.g., Enzyme Nomenclature (Academic Press, San Diego, Calif., 1992) (and the citations therein). See also, Frije et al., J. Biol. Chem., 26(24), 16766-73 (1994).
The MMP-14 full length cDNA was provided by Dr. Gregory Goldberg of Washington University (St. Louis, Mo.). The catalytic domain enzyme was expressed in E. coli inclusion bodies, solubilized in urea, purified on a preparative […] reverse phase HPLC column, and then refolded in the presence of zinc acetate and purified for use.
All MMPs were activated using 4-aminophenylmercuric acetate (“APMA”, Sigma Chemical, St. Louis, Mo.) or trypsin. MMP-9 also was activated using human recombinant MMP-3 (purified in Assignee's laboratory following standard cloning and purification techniques).
Two fluorogenic, methoxycoumarin-containing polypeptide substrates were used in the MMP inhibition assays:
MCA-ArgProLeuGlyLeuDpaAlaArgGluArgNH2 (II)
Here, “Dpa” is 3-(2,4-dinitrophenyl)-L-2,3-diaminopropionyl group, and “MCA” is 7-methoxycoumarin-4-yl acetyl. Substrate (I) was purchased from Baychem (Redwood City, Calif.), and substrate II was prepared Assignee's laboratory. Substrate I was used in the IC50 determination assays, while substrate II was used in the Ki determination assays. In the absence of MMP inhibitory activity, either substrate is cleaved at the Gly-Leu peptide bond. This cleavage separates the highly fluorogenic peptide from the 2,4-dinitrophenyl quencher, thus resulting in increase of fluorescent intensity.
The stock solutions of the assayed hydroxamates (or salts thereof) were prepared in 1% dimethyl sulfoxide (DMSO). These stock solutions were diluted in Buffer A (100 mM Tris-HCl, 100 mM NaCl, 10 mM CaCl2, 0.05% polyoxyethylene 23 lauryl ether, pH 7.5) to obtain solutions with different hydroxamate concentrations, i.e., assay solutions with different concentrations of the assayed MMP inhibitory compound. The experiment controls contained the same amount of Buffer A/DMSO as the assayed sample, but contained no hydroxamate (or salt thereof).
The assays from which the Ki determinations were made were performed as follows. The assayed hydroxamate samples were incubated in separate wells of untreated white polystyrene plates (Nunc Nalgene International, Rochester, N.Y.), and analyzed on a Tecan SpectraFlour Plus plate reader. The excitation wavelength was 330 nm, and the emission wavelength—420 nm. All samples (assayed hydroxamates and controls) were incubated in separate plate wells at room temperature for 1 hr in the presence of 4 μM of MMP substrate (II). In the absence of MMP inhibitory activity, substrate II was cleaved at the Gly-Leu bond resulting in an increase of relative fluorescence. Inhibition was observed as a reduced rate of this increase in relative fluorescence. The various hydroxamates were analyzed using a single low enzyme concentration with a single substrate concentration fixed at or below the Km. This protocol is a modification of method by Knight et al., FEBS Lett., 296(3), 263-266 (1992). Apparent inhibitory constants were determined by non-linear regression of reaction velocity as a function of inhibitor and enzyme concentration using Morrison's equation, as described by Kuzmic, Anal. Biochem. 286, 45-50 (2000). Modifications were made in the non-linear regression method to allow a common control reaction rate and effective enzyme concentration to be shared between all dose-response relationships on a given assay plate. […]

Human recombinant MMP-14 [2] = biological target: T2, Human recombinant MMP-14; test: In vitro MMP inhibition, IC50 determination (fluorogenic substrate I)
Method in brief: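 Catalytic-domain MMP-14, expressed in E. coli and refolded, activated with APMA or trypsin; compounds incubated at room temperature with 4 μM fluorogenic substrate I (MCA-PLGL-Dpa-AR-NH2) in Tris/NaCl/CaCl2 buffer, pH 7.5. Fluorescence at ex 328/em 415 nm; IC50 from loss of fluorescence versus inhibitor concentration.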

Human recombinant MMP-1 = biological target: T3, Human recombinant MMP-1 (Homo sapiens, UniProt P03956); test: as above
T3 construct: made in house; host or cells: MMP-1-transfected HT-1080 cells (spent media)
T3 sequence (P03956 100-469): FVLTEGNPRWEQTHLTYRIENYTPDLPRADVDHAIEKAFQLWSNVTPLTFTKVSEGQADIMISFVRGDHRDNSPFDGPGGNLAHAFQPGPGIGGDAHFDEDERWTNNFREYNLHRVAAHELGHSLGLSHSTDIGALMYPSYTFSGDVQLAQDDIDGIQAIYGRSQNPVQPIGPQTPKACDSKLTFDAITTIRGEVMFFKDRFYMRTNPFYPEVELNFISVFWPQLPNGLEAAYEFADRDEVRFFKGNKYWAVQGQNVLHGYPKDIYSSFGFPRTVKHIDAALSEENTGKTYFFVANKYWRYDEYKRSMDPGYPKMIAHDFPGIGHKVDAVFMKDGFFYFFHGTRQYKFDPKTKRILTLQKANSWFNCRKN
Method in brief: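 APMA- or trypsin-activated enzyme, purified from spent media of transfected HT-1080 cells, incubated at room temperature with 4 μM MCA-Pro-Leu-Gly-Leu-Dpa-Ala-Arg-NH2 and graded inhibitor in Tris buffer pH 7.5 (10 mM CaCl2, 0.05% Brij). Cleavage read by fluorescence (ex 328/em 415 nm); IC50 from fluorescence reduction versus inhibitor concentration.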

[3] = substrate (I) 4 μM, room temperature, values not in parenthesis
[4] = substrate (II) 4 μM, 1 hr room temperature, apparent Ki, values in parenthesis

SMILES	IC50 (Human recombinant MMP-13; value outside parentheses) [nM]	Ki (Human recombinant MMP-14 [1]; value in parentheses) [µM]	IC50 (Human recombinant MMP-13; value outside parenthesis) [nM]	also measured
O=C(NO)C1(S(=O)(=O)c2ccc(OCCCc3cccc(-c4ccccc4O)c3)cc2)CCOCC1 [Example 636]	3.2	> 10	–	–
O=C(NO)C1(S(=O)(=O)c2ccc(OCCCc3cccc(-c4ccco4)c3)cc2)CCOCC1 [Example 97]	–	–	3.3	Ki (Human recombinant MMP-14 [1]; value in parenthesis): > 10 µM
O=C1Nc2ccc(-c3noc(CCCOc4ccc(S(=O)(=O)C5(C(=O)NO)CCN(C6CC6)CC5)cc4)n3)cc21 [Example 142]	–	–	7.5	Ki (Human recombinant MMP-14 [1]; value in parenthesis): > 10 µM
O=C(NO)C1(S(=O)(=O)c2ccc(OCCCc3cccc(-c4cccc(F)c4)c3)cc2)CCOCC1 [Example 161]	–	–	2.6	IC50 (Human recombinant MMP-14 [2]; value outside parenthesis): > 10 µM; IC50 (Human recombinant MMP-1; value outside parenthesis): > 10 µM
O=C(NO)C1(S(=O)(=O)c2ccc(OCCCc3nc(-c4ccccc4)no3)cc2)CCOCC1 [Example 584]	3.6	6.63	–	–
O=C(NO)C1(S(=O)(=O)c2ccc(OCCCc3cccc(-c4ccccc4Cl)c3)cc2)CCOCC1 [Example 162]	–	–	15.6	Ki (Human recombinant MMP-14 [1]; value in parenthesis): > 10 µM
O=C(NO)C1(S(=O)(=O)c2ccc(OCCCc3cccc(-n4ccnc4)c3)cc2)CCOCC1 [Example 574]	0.7	5.39	–	–
O=C(NO)C1(S(=O)(=O)c2ccc(OCCCc3cccc(-c4ccc(C(F)(F)F)cc4)c3)cc2)CCOCC1 [Example 625]	33.6	> 10	–	–
NC(=O)c1cccc(OCCOc2ccc(S(=O)(=O)C3(C(=O)NO)CCOCC3)cc2)c1 [Example 54]	–	–	–	IC50 (Human recombinant MMP-13; [3]): 10.5 nM; Ki (Human recombinant MMP-14 [1]; [4]): 4.12 µM
O=C(NO)C1(S(=O)(=O)c2ccc(OCCCc3cccc(-c4csc5ccccc45)c3)cc2)CCOCC1 [Example 631]	118	> 10	–	–
Cc1ccc(-c2cccc(CCCOc3ccc(S(=O)(=O)C4(C(=O)NO)CCOCC4)cc3)c2)s1 [Example 639]	4.3	> 10	–	–
O=C(NO)C1(S(=O)(=O)c2ccc(OCCCc3cccc(-c4ccccn4)c3)cc2)CCOCC1 [Example 148]	–	–	3.1	Ki (Human recombinant MMP-14 [1]; value in parenthesis): 5.15 µM
O=C(NO)C1(S(=O)(=O)c2ccc(OCCCc3nc(-c4cccnc4)no3)cc2)CCOCC1 [Example 578]	2.9	> 10	–	–
COCCN1CCC(C(=O)NO)(S(=O)(=O)c2ccc(OCCCc3cc(-c4ccc(F)cc4F)cs3)cc2)CC1 [Example 47, 4-[(4-{3-[4-(2,4-difluorophenyl)thien-2-l]propoxy}phenyl)sulfonyl]-N-hydroxy-1-(2-methoxyethyl)piperidine-4-carboxamide Hydrochloride]	–	–	–	IC50 (Human recombinant MMP-13; [3]): 0.2 nM; Ki (Human recombinant MMP-14 [1]; [4]): 3.32 µM and 5.29 µM
O=C(NCCOc1ccc(S(=O)(=O)C2(C(=O)NO)CCOCC2)cc1)c1cc2ccccc2[nH]1 [Example 599]	0.1	–	–	IC50 (Human recombinant MMP-14 [2]; value outside parentheses): 0.057 µM; IC50 (Human recombinant MMP-1; value outside parentheses): > 10 µM
O=C(NO)C1(S(=O)(=O)c2ccc(OCCCc3cccc(-c4coc5ccccc45)c3)cc2)CCOCC1 [Example 634]	16.3	> 10	–	–
O=C(NO)C1(S(=O)(=O)c2ccc(OCCCc3cccc(-c4ccncc4)c3)cc2)CCOCC1 [Example 149]	–	–	1.3	Ki (Human recombinant MMP-14 [1]; value in parenthesis): 2.53 µM
O=C(NO)C1(S(=O)(=O)c2ccc(OCCCc3cccc(-c4ccc(OC(F)(F)F)cc4)c3)cc2)CCOCC1 [Example 147]	–	–	28.3	Ki (Human recombinant MMP-14 [1]; value in parenthesis): > 10 µM
O=C(NO)C1(S(=O)(=O)c2ccc(OCCCc3cccc(-c4ccc5ccccc5c4)c3)cc2)CCOCC1 [Example 629]	78.6	> 10	–	–
COCCN1CCC(C(=O)NO)(S(=O)(=O)c2ccc(OCCCn3nnc(-c4ccc(OC(F)(F)F)cc4)n3)cc2)CC1 [Example 48]	–	–	–	IC50 (Human recombinant MMP-13; [3]): 0.2 nM; IC50 (Human recombinant MMP-14 [2]; [3]): > 10 µM; IC50 (Human recombinant MMP-1; [3]): > 10 µM
Cc1ccc(-c2cccc(CCCOc3ccc(S(=O)(=O)C4(C(=O)NO)CCOCC4)cc3)c2)cc1C [Example 165]	–	–	147	Ki (Human recombinant MMP-14 [1]; value in parenthesis): > 10 µM
O=C(COc1ccc(S(=O)(=O)C2(C(=O)NO)CCOCC2)cc1)c1cccc(-c2ccccc2)c1 [Example 563]	1.1	4.4	–	–
Cc1ccccc1-c1cccc(CCCOc2ccc(S(=O)(=O)C3(C(=O)NO)CCOCC3)cc2)c1 [Example 164]	–	–	20	Ki (Human recombinant MMP-14 [1]; value in parenthesis): > 10 µM
O=C(NO)C1(S(=O)(=O)c2ccc(OCCCc3cccc(-c4ccc5c(c4)OCCO5)c3)cc2)CCOCC1 [Example 627]	14.9	> 10	–	–
O=C(CCCOc1ccc(S(=O)(=O)C2(C(=O)NO)CCOCC2)cc1)Nc1cccc(I)c1 [Example 570]	0.2	1.36	–	–
O=C(NO)C1(S(=O)(=O)c2ccc(OCCCc3cccc(-c4cc5ccccc5s4)c3)cc2)CCOCC1 [Example 633]	117	> 10	–	–
C=Cc1ccc(-c2cccc(CCCOc3ccc(S(=O)(=O)C4(C(=O)NO)CCOCC4)cc3)c2)cc1 [Example 635]	20	> 10	–	–
O=C(NO)C1(S(=O)(=O)c2ccc(OCCCc3cccc(-c4ccc(F)cc4)c3)cc2)CCOCC1 [Example 39]	–	–	–	IC50 (Human recombinant MMP-13; [3]): 0.9 nM; Ki (Human recombinant MMP-14 [1]; [4]): > 10 µM
O=C(NO)C1(S(=O)(=O)c2ccc(OCCCc3cncc(Br)c3)cc2)CCOCC1 [Example 522]	0.3	6.29	–	–
